Results from BigSolDB 2.1.

Cl.N=C(N=C(N)N)N1CCOCC1
solubility (mole fraction)
Conditions	283.15 K	293.15 K	303.15 K	313.15 K	323.15 K
in acetone	1.9e-05	3.3e-05	6.2e-05	0.000107	0.000186
in acetonitrile	9.1e-05	0.000106	0.000117	0.000128	0.000149
in ethanol	0.0023	0.00283	0.00356	0.00461	0.00615
in ethyl acetate	7.7e-05	9.7e-05	0.000117	0.000138	0.000161
in isobutanol	0.000621	0.000696	0.000915	0.00124	0.00157
in isopropanol	0.000482	0.00062	0.00079	0.001	0.00124
in methanol	0.013	0.0215	0.0268	0.0341	0.0423
in n-butanol	0.000682	0.000834	0.00101	0.00137	0.00184
in n-pentanol	0.00045	0.000545	0.00061	0.000729	0.000967
in n-propanol	0.0011	0.00136	0.00161	0.00206	0.00279
in sec-butanol	0.000297	0.000358	0.000445	0.000534	0.000732
in water	0.0565	0.0653	0.0853	0.105	0.127
